Measurements as given in patent US20240041042A1, “1-(PYRIDYL)-5-AZINYLPYRAZOLE DERIVATIVES, AND THEIR USE FOR CONTROL OF UNDESIRED PLANT GROWTH” (Bayer Aktiengesellschaft, priority 2020, published 2024).
Like-named read-outs stand apart in the source and are kept apart here.

Assays:
Assay type in all cases: in vivo
[1] = tested on: Abutilon theophrasti (ABUTH); experiment: Post-emergence herbicidal action against ABUTH; details: visual rating about 3 weeks after treatment vs untreated controls (100% = plants have died, 0% = like control plants)
Outline: (§1)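 Values are percent visual activity (0% like control, 100% plants dead) after about 3 weeks in the greenhouse. Treatment: post-emergence spray at one-leaf stage, 600 l/ha spray volume, 0.5% additive, doses 320 g/ha or lower.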

[2] = tested on: Verconica persica (VERPE); experiment: Pre-emergence herbicidal action against VERPE
Outline: (§2)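 Application rates ran to 320 g/ha or lower, with several dosages tested on the same weeds. The compound, as wettable powder or emulsion concentrate, is sprayed pre-emergence onto soil over sown seeds; greenhouse growth follows, and effect is rated visually after roughly 3 weeks.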

[3] = tested on: Alopecurus myosuroides (ALOMY); experiment: Pre-emergence herbicidal action against ALOMY; details: scored visually after about 3 weeks, 100% = plants have died
Outline: as §2

Setaria viridis (SETVI) [4] = experiment: Pre-emergence herbicidal action against SETVI
Outline: as §2

Setaria viridis (SETVI) [5] = experiment: Post-emergence herbicidal action against SETVI
Outline: as §1

Oryza sativa (ORYSA) = details: crop plant compatibility
Outline: (§3)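 Test crops were treated 2 to 3 weeks after sowing, once they reached one leaf, by spraying compound in water with 0.5% additive at 600 l/ha. Visual scoring compared them with untreated controls roughly 3 weeks on, and appendices a, b and c denote different doses.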

Zea mays (ZEAMX) = details: crop plant compatibility, 80 g/ha, effect vs untreated controls
Outline: as §3

[6] = tested on: Pharbitis purpurea (PHBPU); experiment: Pre-emergence herbicidal action against PHBPU
Outline: as §2

Viola tricolor (VIOTR) [7] = experiment: Post-emergence herbicidal action against VIOTR; details: 320 g/ha
Outline: as §1

Lolium rigidum (LOLRI) [8] = experiment: Pre-emergence herbicidal action against LOLRI
Outline: as §2

[9] = tested on: Matricaria inodora (MATIN); experiment: Pre-emergence herbicidal action against MATIN
Outline: as §2

[10] = tested on: Echinochloa crus-galli (ECHCG); experiment: Pre-emergence herbicidal action against ECHCG
Outline: as §2

[11] = tested on: Polygonum convolvulus (POLCO); experiment: Pre-emergence herbicidal action against POLCO
Outline: as §2

[12] = tested on: Abutilon theophrasti (ABUTH); experiment: Pre-emergence herbicidal action against ABUTH; details: 100% = plants have died
Outline: as §2

Avena fatua (AVEFA) [13] = experiment: Post-emergence herbicidal action against AVEFA; details: visual rating about 3 weeks after treatment
Outline: as §1

[14] = tested on: Amaranthus retroflexus (AMARE); experiment: Pre-emergence herbicidal action against AMARE; details: visual scoring after about 3 weeks vs untreated controls
Outline: as §2

[15] = tested on: Alopecurus myosuroides (ALOMY); experiment: Post-emergence herbicidal action against ALOMY; details: visual rating about 3 weeks after treatment vs untreated controls (100% = plants have died, 0% = like control plants)
Outline: as §1

Lolium rigidum (LOLRI) [16] = experiment: Post-emergence herbicidal action against LOLRI
Outline: as §1

Viola tricolor (VIOTR) [17] = experiment: Pre-emergence herbicidal action against VIOTR
Outline: as §2

[18] = tested on: Amaranthus retroflexus (AMARE); experiment: Post-emergence herbicidal action against AMARE
Outline: as §1

[19] = tested on: Pharbitis purpurea (PHBPU); experiment: Post-emergence herbicidal action against PHBPU
Outline: as §1

[20] = tested on: Verconica persica (VERPE); experiment: Post-emergence herbicidal action against VERPE
Outline: as §1

Avena fatua (AVEFA) [21] = experiment: Pre-emergence herbicidal action against AVEFA; details: 320 g/ha, visual scoring after about 3 weeks vs untreated controls
Outline: as §2

[22] = tested on: Echinochloa crus-galli (ECHCG); experiment: Post-emergence herbicidal action against ECHCG
Outline: as §1

[23] = tested on: Polygonum convolvulus (POLCO); experiment: Post-emergence herbicidal action against POLCO; details: dosage 80 g/ha
Outline: as §1

[24] = 80 g/ha, effect in comparison to untreated controls
[25] = 80 g/ha, scored visually after about 3 weeks vs untreated controls, 0% = like control plants
[26] = Dosage column 320 g/ha (title prints 3200 g/ha), scored visually after about 3 weeks
[27] = 80 g/ha, visual rating about 3 weeks after treatment vs untreated controls (100% = plants have died, 0% = like control plants)

Structure (SMILES)	Post-emergence action against ABUTH in % ([1]; 80 g/ha)	Pre-emergence action against VERPE in % ([2]; dosage 80 g/ha)	Pre-emergence action against VERPE in % ([2]; dosage 320 g/ha)	Pre-emergence action against ALOMY ([3]; 320 g/ha)	Pre-emergence action against SETVI in % (Setaria viridis (SETVI) [4]; dosage 320 g/ha)	Post-emergence action against ORYSA in % (Oryza sativa (ORYSA); [24])	Pre-emergence action against PHBPU in % ([6]; dosage 320 g/ha)	Pre-emergence action against LOLRI in % (Lolium rigidum (LOLRI) [8]; dosage 80 g/ha)	Pre-emergence action against LOLRI in % (Lolium rigidum (LOLRI) [8]; dosage 320 g/ha)	Pre-emergence action against MATIN in % ([9]; dosage 320 g/ha)	Pre-emergence action against ECHCG in % ([10]; dosage 80 g/ha)	Pre-emergence action against ECHCG in % ([10]; dosage 320 g/ha)	Pre-emergence action against POLCO in % ([11]; dosage 80 g/ha)	Pre-emergence action against POLCO in % ([11]; dosage 320 g/ha)	Pre-emergence action against ABUTH [12, 25]	Pre-emergence action against ABUTH [12, 26]	Post-emergence action against AVEFA in % (Avena fatua (AVEFA) [13]; 80 g/ha)	Pre-emergence action against AMARE in % ([14]; 80 g/ha)	Pre-emergence action against AMARE in % ([14]; 320 g/ha)	Post-emergence action against ALOMY in % ([15]; 80 g/ha)	also measured
COC(=O)[C@@H](C)Oc1nn(-c2nc(F)ccc2F)c(-c2ccc(F)nc2)c1Cl [Example I-332]	80%	80%	90%	100%	100%	20%	100%	90%	100%	90%	80%	100%	80%	80%	80%	80%	80%	80%	100%	80%	Post-emergence action against ABUTH in % ([1]; 320 g/ha): 80%; Post-emergence action against SETVI in % (Setaria viridis (SETVI) [5]; dosage 320 g/ha): 80%; Post-emergence action against ZEAMX in % (Zea mays (ZEAMX)): 10%; Post-emergence action against VIOTR in % (Viola tricolor (VIOTR) [7]): 80%; Post-emergence action against AVEFA in % (Avena fatua (AVEFA) [13]; 320 g/ha): 90%; Post-emergence action against ALOMY in % ([15]; 320 g/ha): 90%; Post-emergence action against LOLRI in % (Lolium rigidum (LOLRI) [16]; dosage 80 g/ha): 80%; Post-emergence action against LOLRI in % (Lolium rigidum (LOLRI) [16]; dosage 320 g/ha): 90%; Pre-emergence action against VIOTR in % (Viola tricolor (VIOTR) [17]; 320 g/ha, Viola tricolor): 100%; Pre-emergence action against VIOTR in % (Viola tricolor (VIOTR) [17]; dosage 80 g/ha): 90%; Post-emergence action against AMARE in % [18, 27]: 80%; Post-emergence action against AMARE in % ([18]; 320 g/ha, visual rating about 3 weeks after treatment): 80%; Post-emergence action against PHBPU in % ([19]; dosage 80 g/ha): 80%; Post-emergence action against PHBPU in % ([19]; dosage 320 g/ha): 80%; Post-emergence action against VERPE in % ([20]; 320 g/ha, VERPE): 80%; Pre-emergence action against AVEFA in % (Avena fatua (AVEFA) [21]): 100%; Post-emergence action against ECHCG in % ([22]; dosage 80 g/ha): 80%; Post-emergence action against ECHCG in % ([22]; dosage 320 g/ha): 90%
C[C@@H](Oc1nn(-c2ccccn2)c(-c2cncc(F)c2)c1Br)C(=O)O [Example I-79]	80%	80%	100%	100%	100%	0%	90%	100%	100%	90%	80%	100%	90%	90%	80%	90%	100%	100%	100%	80%	Pre-emergence action against ALOMY ([3]; 80 g/ha): 90%; Pre-emergence action against SETVI in % (Setaria viridis (SETVI) [4]; dosage 80 g/ha): 100%; Post-emergence action against SETVI in % (Setaria viridis (SETVI) [5]; dosage 80 g/ha): 80%; Post-emergence action against ORYSA in % (Oryza sativa (ORYSA); 20 g/ha, effect vs untreated controls): 0%; Pre-emergence action against PHBPU in % ([6]; dosage 80 g/ha): 90%; Pre-emergence action against MATIN in % ([9]; dosage 80 g/ha): 80%; Post-emergence action against POLCO in % [23]: 80%; Pre-emergence action against VIOTR in % (Viola tricolor (VIOTR) [17]; 320 g/ha, Viola tricolor): 100%; Pre-emergence action against VIOTR in % (Viola tricolor (VIOTR) [17]; dosage 80 g/ha): 100%; Post-emergence action against AMARE in % [18, 27]: 90%; Post-emergence action against PHBPU in % ([19]; dosage 80 g/ha): 80%; Post-emergence action against VERPE in % ([20]; dosage 80 g/ha): 80%; Pre-emergence action against AVEFA in % (Avena fatua (AVEFA) [21]): 100%
